17 compounds from ChEMBL document CHEMBL1149643, “Synthesis of novel bicyclo[4.1.0]heptane and bicyclo[3.1.0]hexane derivatives as melanin-concentrating hormone receptor R1 antagonists” (Bioorg Med Chem Lett, 2007) can be followed below.

Molecules are shown by their SMILES.

One data set deals with hERG (KCNH2) (Homo sapiens, UniProt Q12809). The data set can be described thus: Inhibition of hERG at 5 ug/ml by rubidium efflux assay. Type of data set: toxicity.
Data set [1] concerns the target Melanin-concentrating hormone receptor 1 (Homo sapiens, UniProt Q99705). The data set can be described thus: Antagonist activity at MCHR1. It is filed as functional.
The subject of another data set is Mus musculus. The data set is described as follows: Ex vivo receptor occupancy at MCHR1 in mouse at 30 mg/kg, po. It is filed as functional.

Chain of hERG (KCNH2) (Q12809 whole entry): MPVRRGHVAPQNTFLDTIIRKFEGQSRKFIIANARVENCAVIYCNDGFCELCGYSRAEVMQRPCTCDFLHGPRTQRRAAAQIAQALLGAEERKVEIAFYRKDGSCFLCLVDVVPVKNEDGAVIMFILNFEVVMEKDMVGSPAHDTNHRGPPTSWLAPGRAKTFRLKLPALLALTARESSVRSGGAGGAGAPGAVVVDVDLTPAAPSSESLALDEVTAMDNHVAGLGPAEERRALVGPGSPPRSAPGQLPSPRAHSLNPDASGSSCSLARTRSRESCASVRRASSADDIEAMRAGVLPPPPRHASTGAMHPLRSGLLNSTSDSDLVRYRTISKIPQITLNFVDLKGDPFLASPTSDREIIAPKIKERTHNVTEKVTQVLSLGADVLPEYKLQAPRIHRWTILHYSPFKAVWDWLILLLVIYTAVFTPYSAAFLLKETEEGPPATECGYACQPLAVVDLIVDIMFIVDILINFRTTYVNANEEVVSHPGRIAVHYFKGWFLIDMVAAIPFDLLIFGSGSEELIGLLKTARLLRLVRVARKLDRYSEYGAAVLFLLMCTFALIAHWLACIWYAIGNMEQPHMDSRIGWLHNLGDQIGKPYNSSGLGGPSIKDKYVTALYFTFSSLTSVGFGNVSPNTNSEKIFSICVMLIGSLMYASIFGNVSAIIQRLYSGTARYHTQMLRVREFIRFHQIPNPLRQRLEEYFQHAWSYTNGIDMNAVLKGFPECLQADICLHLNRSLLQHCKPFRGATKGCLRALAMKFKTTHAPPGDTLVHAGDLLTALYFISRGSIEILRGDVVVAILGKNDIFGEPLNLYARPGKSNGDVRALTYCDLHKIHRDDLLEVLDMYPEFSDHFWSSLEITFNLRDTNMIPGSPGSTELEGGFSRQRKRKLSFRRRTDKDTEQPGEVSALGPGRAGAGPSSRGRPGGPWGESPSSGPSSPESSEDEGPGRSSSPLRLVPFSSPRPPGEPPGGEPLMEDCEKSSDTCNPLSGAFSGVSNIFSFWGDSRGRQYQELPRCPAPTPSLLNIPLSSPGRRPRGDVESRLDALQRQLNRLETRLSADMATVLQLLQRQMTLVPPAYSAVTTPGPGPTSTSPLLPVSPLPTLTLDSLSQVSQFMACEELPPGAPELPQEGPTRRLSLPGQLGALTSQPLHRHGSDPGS
Chain of Melanin-concentrating hormone receptor 1 (Q99705 whole entry): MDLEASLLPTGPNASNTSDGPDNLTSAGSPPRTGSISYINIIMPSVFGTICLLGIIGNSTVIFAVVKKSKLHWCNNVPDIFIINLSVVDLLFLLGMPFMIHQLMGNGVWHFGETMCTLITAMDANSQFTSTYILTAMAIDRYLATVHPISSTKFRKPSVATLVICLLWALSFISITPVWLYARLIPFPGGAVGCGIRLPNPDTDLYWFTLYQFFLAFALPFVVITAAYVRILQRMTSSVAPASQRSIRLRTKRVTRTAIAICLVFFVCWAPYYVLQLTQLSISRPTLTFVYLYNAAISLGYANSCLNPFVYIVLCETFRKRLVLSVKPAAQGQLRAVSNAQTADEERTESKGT

The inhibition is the drop in the measured response relative to a control, in per cent. On to `N#Cc1cccc([C@]23CC[C@@H](N(CCN4CC[C@@H](O)C4)C(=O)Nc4ccc(F)c(Cl)c4)CC2C3)c1` (some centres not stated), for which the inhibition at 5 ug/ml at hERG (KCNH2) was 80%.

As a reminder, the Ki is the equilibrium dissociation constant of an inhibitor or competing ligand from its target. A high value points to lower affinity. In data set [1], `N#Cc1cccc([C@]23CC[C@@H](N(CCCN4CC[C@@H](O)C4)C(=O)Nc4ccc(F)c(Cl)c4)[C@H]2C3)c1` had a Ki of 22 nM. For the same compound, the inhibition at 5 ug/ml against hERG (KCNH2) came to 86%.

Compound `NCc1ncc([C@]23CC[C@@H](N(CCN4CCCC4)C(=O)Nc4ccc(F)c(C(F)(F)F)c4)C2C3)s1` (some centres not stated) yielded an inhibition constant (Ki) in data set [1] of 107 nM. On hERG (KCNH2), the inhibition at 5 ug/ml worked out at 16%.

On to `NCc1ncc([C@]23CC[C@@H](N(CCN4CC[C@H](O)C4)C(=O)Nc4ccc(F)c(C(F)(F)F)c4)C2C3)s1` (some centres not stated), for which, in data set [1], the affinity corresponds to a Ki of 99 nM. Also, the inhibition at 5 ug/ml against hERG (KCNH2) worked out at 8%.

For the compound `NCc1ncc([C@]23CC[C@@H](N(CCCN4CC[C@H](O)C4)C(=O)Nc4ccc(F)c(C(F)(F)F)c4)C2C3)s1` (some centres not stated), the inhibition constant (Ki) in data set [1] is 45 nM. Further, the inhibition at 5 ug/ml at hERG (KCNH2) is -4%.

Turning to `NCc1ncc([C@]23CC[C@@H](N(CCCN4CC[C@@H](O)C4)C(=O)Nc4ccc(F)c(C(F)(F)F)c4)C2C3)s1` (some centres not stated), in data set [1], the Ki worked out at 17 nM. In addition, the inhibition at 5 ug/ml against hERG (KCNH2) was -4%.

Regarding `C[C@@H]1CN(CCCN(C(=O)Nc2cc(Cl)nc(Cl)c2)[C@@H]2CC[C@]3(c4cnc(CN)s4)CC23)[C@@H](C)CN1` (some centres not stated), the Ki in data set [1] was 13.1 nM. Also, the inhibition at 5 ug/ml at hERG (KCNH2) was found to be 3%.

In turn, `NCc1ncc([C@]23CC[C@@H](N(CCCN4CC5CC4CN5)C(=O)Nc4ccc(F)c(C(F)(F)F)c4)C2C3)s1` (some centres not stated) registered an inhibitory constant (Ki) in data set [1] of 73 nM. In addition, the inhibition at 5 ug/ml on hERG (KCNH2) was 14%.

With `NCc1ncc([C@]23CC[C@H](N(CCCN4CC[C@@H](O)C4)C(=O)Nc4ccc(F)c(C(F)(F)F)c4)[C@H]2C3)s1`, the Ki in data set [1] is 6.6 nM. For the same compound, the inhibition at 5 ug/ml on hERG (KCNH2) is 8%.

By inhibition in vivo is commonly meant the relative decrease from the control value, in per cent. As to `C[C@@H]1CN(CCCN(C(=O)Nc2cc(Cl)nc(Cl)c2)[C@H]2CC[C@]3(c4cnc(CN)s4)C[C@H]23)[C@@H](C)CN1`, testing at 30 mg/kg with Mus musculus gave an inhibition in vivo of 16%. In data set [1], this compound had a Ki of 6.1 nM. The inhibition at 5 ug/ml at hERG (KCNH2) is -12%.

`NCc1ncc(C2=CCC(N(CCN3CCCC3)C(=O)Nc3ccc(F)c(Cl)c3)CC2)s1` (configuration not stated): the inhibition in vivo at 30 mg/kg in the data set on Mus musculus was found to be 88%. Moreover, on hERG (KCNH2), the inhibition at 5 ug/ml turned out to be 10%.

In the data set with Mus musculus, `C[C@@H]1CN(CCCN(C(=O)Nc2cc(Cl)nc(Cl)c2)[C@H]2CC[C@@]3(c4cnc(CN)s4)C[C@@H]23)[C@@H](C)CN1` yielded an inhibition in vivo at 30 mg/kg of 20%. The compound also returned an inhibition constant (Ki) in data set [1] of 117 nM. Also, the inhibition at 5 ug/ml on hERG (KCNH2) is -13%.

Take `C[C@@H]1CN[C@@H](C)CN1CCCN(C(=O)Nc1cc(Cl)nc(Cl)c1)[C@H]1CC[C@]2(c3cnc(CN)s3)C[C@H]12`: the inhibition in vivo at 30 mg/kg in the data set with Mus musculus stood at 39%. In data set [1], this compound yielded an inhibition constant Ki of 4 nM. The inhibition at 5 ug/ml against hERG (KCNH2) was determined as 22%.

`C[C@@H]1CN(CCCN(C(=O)Nc2ccc(F)c(C(F)(F)F)c2)[C@@H]2CC[C@]3(c4cnc(CN)s4)CC23)[C@@H](C)CN1` (some centres not stated) had a Ki in data set [1] of 19 nM. Besides, the inhibition at 5 ug/ml on hERG (KCNH2) was -8%.

For the compound `NCc1cnc([C@]23CC[C@@H](N(CCN4CCCC4)C(=O)Nc4ccc(F)c(C(F)(F)F)c4)CC2C3)s1` (some centres not stated), the Ki in data set [1] was found to be 431 nM. Further, the inhibition at 5 ug/ml at hERG (KCNH2) is 19%.

`NCc1ncc([C@@]23CC[C@H](N(CCCN4CC[C@@H](O)C4)C(=O)Nc4ccc(F)c(C(F)(F)F)c4)[C@@H]2C3)s1` gave a Ki in data set [1] of 167 nM. Further, the inhibition at 5 ug/ml on hERG (KCNH2) turned out to be 6%.

On to `C[C@@H]1CN[C@@H](C)CN1CCCN(C(=O)Nc1cc(Cl)nc(Cl)c1)[C@H]1CC[C@@]2(c3cnc(CN)s3)C[C@@H]12`, for which, in the data set with Mus musculus, testing at 30 mg/kg gave an inhibition in vivo of 26%. In data set [1], this compound displayed a Ki of 171 nM. Also, the inhibition at 5 ug/ml on hERG (KCNH2) came out at 17%.
